The numbers were not newly measured in US9498462B2, “Doxepin trans isomers and isomeric mixtures and methods of using the same to treat sleep disorders” (Pernix Sleep Inc., priority 2006, dated 2016), which cites them from elsewhere.

The target of series [1] is T1, melatonin MT2 receptor (Homo sapiens, UniProt P49286).
T1 sequence (P49286 1-362): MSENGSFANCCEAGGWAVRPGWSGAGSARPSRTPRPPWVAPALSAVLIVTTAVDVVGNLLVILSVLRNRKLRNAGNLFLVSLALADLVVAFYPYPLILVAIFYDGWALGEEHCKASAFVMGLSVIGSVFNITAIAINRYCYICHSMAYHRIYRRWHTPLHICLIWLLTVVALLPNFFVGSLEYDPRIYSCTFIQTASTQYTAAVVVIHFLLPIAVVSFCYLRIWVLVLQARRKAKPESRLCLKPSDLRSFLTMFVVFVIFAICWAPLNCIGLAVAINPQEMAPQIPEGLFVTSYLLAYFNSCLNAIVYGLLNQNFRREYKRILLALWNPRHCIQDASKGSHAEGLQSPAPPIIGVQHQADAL

Series [2] addresses melatonin MT1 receptor (Homo sapiens, UniProt P48039).

melatonin MT1 receptor, sequence (P48039 whole entry): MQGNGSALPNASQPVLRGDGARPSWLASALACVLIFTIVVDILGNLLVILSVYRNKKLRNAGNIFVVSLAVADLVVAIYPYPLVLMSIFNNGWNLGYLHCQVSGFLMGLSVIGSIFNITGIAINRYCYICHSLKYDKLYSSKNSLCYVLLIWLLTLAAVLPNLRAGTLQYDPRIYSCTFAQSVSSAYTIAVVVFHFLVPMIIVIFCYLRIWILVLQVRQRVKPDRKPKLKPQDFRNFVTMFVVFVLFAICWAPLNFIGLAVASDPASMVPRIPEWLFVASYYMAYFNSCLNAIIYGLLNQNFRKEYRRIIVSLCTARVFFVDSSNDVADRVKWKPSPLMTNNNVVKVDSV

Take `CCC(=O)NCC[C@@H]1CCc2ccc3c(c21)CCO3` [Ramelteon, (S)—N-[2-(1,6,7,8-tetrahydro-2H-indeno-[5,4-b]furan-8-yl)ethyl]propionamide]: in series [1], the “affinity for melatonin MT2 receptor” value is listed as “high affinity”. In addition, the “affinity for melatonin MT1 receptor” value in series [2] is given as “high affinity”.
